Results reported in patent US4455312A.
Structures can show the parent of a compound that is named as a salt. Where two headings read alike, the source gives them in different places.

Key:
in vivo = experiment: in vivo
Protocol: (§1) 2-(o-carboxyphenylamino)-6-H-pyrimido(2,1-b)-quinazolone-6 and its derivatives were tested for acute toxicity.
(§2) Acute toxicity of 2-(o-carboxyphenylamino)-6H-pyrimido(2,1-b)-quinazolone-6and its derivatives was determined in intra-abdominal and peroral administration; for cats in peroral administration. […] The statistical analysis of obtained data was carried out in accordance with the method of Litchfield, Wilcockson and Van der Waerden.

[1] = Acute toxicity in rabbits (LD50); settings: rabbit, in vivo, ip, rabbits, intra-abdominal, Van der Waerden
Protocol: as §1, §2

[2] = Acute toxicity in cats (LD50); settings: cat, in vivo, po
Protocol: as §1, §2

rats = experiment: in vivo; settings: rat, 168 h
Protocol: as §1, §2

white mice = experiment: in vivo; settings: mouse, 168 h
Protocol: as §1, §2

rabbits = experiment: Acute toxicity in rabbits (LD50); settings: rabbit, in vivo, 10080 min
Protocol: as §1, §2

[3] = test system: formalin edema of a foot in the rat; settings: for other symptoms of inflammation (hyperemia, painfulness) and formation of necrotic foci: formalin inflammation
Protocol: (§3) The growth of foot endema in the rat was registered in dynamics after each hour from the moment of subplantar administration of a stimulus during 5 hours. Percentage of inhibition of the foor emeda in the rat was calculated from the following formula: [formula] where
(§4) Vk is the volume of a control edematic foot minus the initial volume of the same foot prior to edema;
(§5) Vo is the volume of the tested edematic foot minus the initial volume of the same foot prior to edema.

carrageenin edema = test system: carrageenin edema
Protocol: as §3, §4, §5
A carrageenin edema was induced by subplantar administration in rats of 0.1 ml 1% solution of carrageenin (polysaccharide prepared from Iceland or pearl moss).

cotton granuloma = experiment: whole plant or invertebrate
Excerpt: The term "cotton granuloma" means hereinafter the formation of a granular-fibrous tissue around cotton balls implanted into experimental animals.

[4] = test system: threshold of pain sensitivity in contact-heat stimulation
pyrogenal fever = experiment: Antipyretic effect in pyrogenal fever; settings: rats
Protocol: Antipyretic effect of 2-(o-carboxyphenylamino)-6H-pyrimido(2,1-b)-quinazolone-6 and its derivatives were investigated in rats suffering from pyrogenal fever. Maximum decrease in the temperature (degrees) was determined.

ovalbumin edema = experiment: Ovalbumin edema of rat foot; assay type: in vivo, rats; settings: 1/10 LD50 intra-abdominal
Protocol: An ovalbumin edema was induced by subplantar administration in rats of egg albumin (0.1 ml per foot). The edema developed very intensely, i.e. reached the maximum magnitude (191%) as soon as 1 hour following the injection of ovalbumin, and completely disappeared by the end of the day.
The preparations under studies were administered in the given investigations in a dose corresponding to 1/10LD50 for the rats in the intra-abdominal administration.

Solubility = assay type: physicochemical
[5] = rat, in vivo, ip, hydrochloride
[6] = read-out: Percentage of inhibition (cotton granuloma)

O=C(O)c1ccccc1Nc1ccn2c(=O)c3ccccc3nc2n1
LD50 at 168 h (in vivo; mouse, ip): 1050 mg/kg | LD50 at 168 h (in vivo; mouse, po): 3400 mg/kg | LD50 at 168 h (in vivo; rat, ip): 980 mg/kg | LD50 at 168 h (in vivo; rat, po): 3800 mg/kg | LD50 at 168 h [1]: 1750 mg/kg | LD50 at 168 h [2]: 5000 mg/kg

COC(=O)c1ccccc1Nc1ccn2c(=O)c3ccccc3nc2n1
LD50 at 168 h (in vivo; mouse, ip): 1160 mg/kg

O=C(O)c1ccccc1Nc1ccn2c(=O)c3ccccc3nc2n1 [2-(o-carboxyphenylamino)6H-pyrimido(2,1-b)-quinazolone-6 hydrochloride]
LD50 (rats; ip): 980 mg/kg | LD50 (rats; po): 3800 mg/kg | LD50 (white mice; ip): 1050 mg/kg | LD50 (white mice; po): 3400 mg/kg | LD50 (rabbits; ip): 1750 mg/kg | LD50 (rabbits; po, hydrochloride): 500 mg/kg | Percentage of inhibition (formalin edema) ([3]; 5 mg/kg intra-abdominal): 31% | Percentage of inhibition (formalin edema) ([3]; 10 mg/kg intra-abdominal): 50% | Percentage of inhibition (formalin edema) ([3]; 49 mg/kg intra-abdominal): 57% | Percentage of inhibition (formalin edema) ([3]; 98 mg/kg intra-abdominal): 71% | depression of formalin edema of a foot in the rat (in words) ([3]; comparison of preparations): the most actively depressed | Therapeutic index (formalin edema) [3, 5]: 61.2 | Percentage of inhibition (carrageenin edema) (carrageenin edema; 25 mg/kg intra-abdominal): 12% | Percentage of inhibition (carrageenin edema) (carrageenin edema; 49 mg/kg intra-abdominal): 26% | Percentage of inhibition (carrageenin edema) (carrageenin edema; 98 mg/kg intra-abdominal): 55% | Therapeutic index (carrageenin edema) (carrageenin edema; [5]): 10.9 | Percentage of inhibition (cotton granuloma) (cotton granuloma; 48 mg/kg): 18% | Percentage of inhibition (cotton granuloma) (cotton granuloma; 95 mg/kg): 24% | Percentage of inhibition (cotton granuloma) (cotton granuloma; 190 mg/kg): 52% | antiproliferative effect (in words) (cotton granuloma; cotton granuloma): the most effective among the given preparations | pharmacotherapeutic width of effect relative to mephenamine acid, sodium salicylate, and phenylbutazone (cotton granuloma; cotton granuloma): three times | Therapeutic index (cotton granuloma) (cotton granuloma; in vivo, hydrochloride): 22.3 | Increase in latent period of pain reaction in mice ([4]; 52 mg/kg, hydrochloride): 31% | Increase in latent period of pain reaction in mice ([4]; 105 mg/kg, hydrochloride): 52% | Increase in latent period of pain reaction in mice ([4]; 157 mg/kg, hydrochloride): 62% | Therapeutic index (analgetic activity) ([4]; mouse, in vivo, hydrochloride): 11.0 | Antipyretic effect (maximum decrease in temperature) (pyrogenal fever; 5% of LD50 (hydrochloride's dose not printed separately)): 1.4 °C

CNC(=O)c1ccccc1Nc1ccn2c(=O)c3ccccc3nc2n1 [2-(o-methylcarbamidephenylamino)-6H-pyrimido(2,1-b)-quinazolone-6]
LD50 at 168 h (in vivo; mouse, ip): 3000 mg/kg

CC(C)Cc1ccc(C(C)C(=O)O)cc1 (centres unmarked) [Bruphen, 2-(para-isobutylphenyl)-propionic acid]
Antipyretic effect (maximum decrease in temperature) (pyrogenal fever; 70% of LD50): 1.3 °C

COc1ccc2c(c1)c(CC(=O)O)c(C)n2C(=O)c1ccc(Cl)cc1 [Indomethacin, 1-(para-chlorobenzoyl)5-methoxy-2-methyl-indole-3-acetic acid]
Antipyretic effect (maximum decrease in temperature) (pyrogenal fever; 70% of LD50): 0.7 °C

Cc1cccc(Nc2ccccc2C(=O)O)c1C [Mephenamine acid, N--(2,3-dimethylphenyl) anthranilic acid]
Percentage of inhibition (formalin edema) ([3]; 9 mg/kg intra-abdominal): 22% | Percentage of inhibition (formalin edema) ([3]; 18 mg/kg intra-abdominal): 24% | Percentage of inhibition (formalin edema) ([3]; 36 mg/kg intra-abdominal): 31% | Percentage of inhibition (formalin edema) ([3]; 72 mg/kg intra-abdominal): 33% | other symptoms of inflammation (hyperemia, painfulness) and formation of necrotic foci [3]: almost noncharacteristic | Percentage of inhibition (carrageenin edema) (carrageenin edema; 25 mg/kg intra-abdominal): 33% | Percentage of inhibition (carrageenin edema) (carrageenin edema; 50 mg/kg intra-abdominal): 44% | Percentage of inhibition (carrageenin edema) (carrageenin edema; 100 mg/kg intra-abdominal): 50% | antiproliferative effect (in words) (cotton granuloma; cotton granuloma): the most effective among the given preparations | Increase in latent period of pain reaction in mice ([4]; 3.5 mg/kg): 18% | Increase in latent period of pain reaction in mice ([4]; 7.0 mg/kg): 36% | Increase in latent period of pain reaction in mice ([4]; 15 mg/kg): 43% | analgetic activity (in words) ([4]; contact-heat stimulation): possessed the most expressed analgetic effect | Antipyretic effect (maximum decrease in temperature) (pyrogenal fever; 70% of LD50): 1.2 °C

CCCCC1C(=O)N(c2ccccc2)N(c2ccccc2)C1=O [Phenylbutazone, 1,2-diphenyl-4-butyl pyrazolidine-dion-3,5]
Percentage of inhibition (formalin edema) ([3]; 21 mg/kg intra-abdominal): 17% | Percentage of inhibition (formalin edema) ([3]; 42 mg/kg intra-abdominal): 40% | Percentage of inhibition (formalin edema) ([3]; 82 mg/kg intra-abdominal): 51% | Percentage of inhibition (carrageenin edema) (carrageenin edema; 21 mg/kg intra-abdominal): 27% | Percentage of inhibition (carrageenin edema) (carrageenin edema; 42 mg/kg intra-abdominal): 44% | Percentage of inhibition (carrageenin edema) (carrageenin edema; 84 mg/kg intra-abdominal): 51% | antiexudative / antiinflammatory effect in ovalbumin edema (in words) (ovalbumin edema): did not produce antiedematic effect | Increase in latent period of pain reaction in mice ([4]; 25 mg/kg): 8% | Increase in latent period of pain reaction in mice ([4]; 50 mg/kg): 43% | Increase in latent period of pain reaction in mice ([4]; 100 mg/kg): 92%

O=C(O)c1ccccc1O [Sodium salicylate, 6-oxybenzoic acid, sodium salt]
Percentage of inhibition (formalin edema) ([3]; 65 mg/kg intra-abdominal): 14% | Percentage of inhibition (formalin edema) ([3]; 130 mg/kg intra-abdominal): 24% | Percentage of inhibition (formalin edema) ([3]; 260 mg/kg intra-abdominal): 41% | Therapeutic index (formalin edema) ([3]; LD50/ED50, intra-abdominal): 1.8 | other symptoms of inflammation (hyperemia, painfulness) and formation of necrotic foci [3]: almost noncharacteristic | Percentage of inhibition (carrageenin edema) (carrageenin edema; 65 mg/kg intra-abdominal): 14% | Percentage of inhibition (carrageenin edema) (carrageenin edema; 90 mg/kg intra-abdominal): 32% | Percentage of inhibition (carrageenin edema) (carrageenin edema; 130 mg/kg intra-abdominal): 56% | Therapeutic index (carrageenin edema) (carrageenin edema; LD50/ED50, intra-abdominal): 5.6 | Therapeutic index (cotton granuloma) (cotton granuloma; LD50/ED50): 7.27 | inhibition at 60 mg/kg (cotton granuloma; [6]): 8% | inhibition at 80 mg/kg (cotton granuloma; [6]): 20% | inhibition at 160 mg/kg (cotton granuloma; [6]): 36% | inhibition at 240 mg/kg (cotton granuloma; [6]): 52% | Increase in latent period of pain reaction in mice ([4]; 32 mg/kg): 28% | Increase in latent period of pain reaction in mice ([4]; 65 mg/kg): 38% | Increase in latent period of pain reaction in mice ([4]; 130 mg/kg): 59% | Therapeutic index (analgetic activity) ([4]; LD50/ED50, contact-heat stimulation): 5.9

O=C(O)c1ccccc1Nc1ccn2c(=O)c3ccccc3nc2n1 [ethanol ammonium salt of 2-(o-carboxyphenylamino)-6H-pyrimid]
solubility (in words) (Solubility): soluble in water
